Experimental data taken from patent US5310938A, “Substituted arylpyrrole compounds” (American Cyanamid Company, priority 1993, dated 1994).

These molecules were tested on Caenorhabditis elegans (assay: Nematicidal activity against C. elegans (motility rating)). Conditions: read at 4 and 24 hours post-immersion.
Format: in vivo, C. elegans (Bristol strain)
Parameters: key: 9: complete kill; 8: no motility; 7: markedly reduced motility in approximately 95% of worms; 6: reduced motility; 5: slightly reduced motility; 0: normal motility, same as controls
Protocol: Cultures of C. elegans (Bristol strain from J. Lewis) are maintained on E. coli lawns on NG Agar Plates at 20° C. New cultures are established weekly.
Nematodes for testing are washed from 4-5 day old cultures using Fresh Ascaris Ringers Solution (FARS). The worms are further washed with FARS,-containing gentamycin, to reduce bacterial contamination and centrifuged to separate worms from wash solution. This procedure is repeated three times. The washed worms are then added to C. brigassae Maintenance Medium (CbMM), from GIBCOa to which is added gentamycin (600 units/ml) and mycostatin (0.5 mg/ml).
Compounds are dissolved in acetone and made up to volume with equal parts of water. The final test concentration of each compound in the mixture is 150 ppm. The test material is micropipetted (25 ul) into a single well of a 96-well sterile tissue culture plate (COSTAR)^b and the solvent allowed to evaporate. These "treated" plates are used immediately or stored in a refrigerator without apparent adverse effects on the compounds.
A freshly prepared volume ([…]) of C. elegans in CbMM is micropipetted into each treated well and several control wells per plate. Culture plates are incubated at 20° C.
Observations for efficacy are made under a dissecting microscope at 4 and 24 hours post-immersion. Immediately prior to reading the plate, it is gently tapped to stimulate the movement of the worms. Activity is judged based on the drug effects on motility of the adults and larvae. […] Other factors indicating activity are easily noted such as death, rigor mortis, contraction, coiling, paralysis, abnormal twitching, reduced worm population in 48 hours and other deviation from normal behavior.
Day 0 Inoculate E. Coli-NG Agar Dish With 30-40
Day 4 Harvest New C. Elegans Population
Add C. Elegans (25-100 µL) To "Medicated"
Observe for Activity at 4 hours Post-
Day 5 Observe For Activity

For `O=[N+]([O-])c1c(Cl)[nH]c(Cl)c1-c1ccc(Cl)c(Cl)c1` [2,5-Dichloro-3-(3,4-dichlorophenyl)-4-nitropyrrole], which “Rating Against C. Elegans 150 ppm” value is on record?
The value was 9.

How did the “Rating Against C. Elegans 150 ppm” value turn out when `FC(F)(F)c1[nH]ccc1-c1ccc(Cl)cc1` [3-(P-chlorophenyl)-2-(trifluoromethyl)pyrrole] was run?
Its value is 9.

How did the “Rating Against C. Elegans 150 ppm” value turn out when `N#Cc1c(-c2ccccc2Cl)[nH]c(Br)c1Br` [4,5-Dibromo-2-(0-chlorophenyl)-pyrrole-3-carbonitrile] was run?
The value was 9.

`N#Cc1c(Br)c(C#N)n(Cc2ccccc2)c1-c1ccc(Cl)cc1` [1-Benzyl-3-bromo-5-(P-chlorophenyl)pyrrole-2,4-dicarbonitrile] was tested. Which “Rating Against C. Elegans 150 ppm” value did it give?
Its value is 9.

How did the “Rating Against C. Elegans 150 ppm” value turn out when `N#Cc1[nH]c(Br)c(C#N)c1-c1ccc(Cl)cc1` [5-Bromo-3-(P-chlorophenyl)-pyrrole-2,4-dicarbonitrile] was run?
The value was 9.

How did the “Rating Against C. Elegans 150 ppm” value turn out when `N#Cc1ccc(-c2[nH]c(Cl)c(Cl)c2C#N)cc1` [4,5-Dichloro-2-(P-cyanophenyl)-pyrrole-3-carbonitrile] was run?
Its value is 9.

`N#Cc1[nH]c(Br)c(-c2ccc(Cl)cc2)c1Br` [3,5-Dibromo-4-(p-chlorophenyl)pyrrole-2-carbonitrile] was tested. Which “Rating Against C. Elegans 150 ppm” value did it give?
Its value is 9.

With `N#Cc1c(Br)[nH]c(-c2ccc(C(F)(F)F)cc2)c1Br` [2,4-Dibromo-5-(α,α,α-trifluoro-P-tolyl)pyrrole-3-carbonitrile] as the molecule, how does the “Rating Against C. Elegans 150 ppm” value read?
The value was 9.

How did the “Rating Against C. Elegans 150 ppm” value turn out when `N#Cc1c(Br)[nH]c(C(F)(F)F)c1-c1ccccc1` [2-Bromo-4-phenyl-5-(trifluoromethyl)pyrrole-3-carbonitrile] was run?
The value was 9.

For `CS(=O)(=O)c1ccc(-c2[nH]c(Br)c(Br)c2C#N)cc1` [4,5-Dibromo-2-[P-(methylsulfonyl)phenyl]-pyrrole-3-carbonitrile], which “Rating Against C. Elegans 150 ppm” value is on record?
Its value is 9.

For `N#Cc1c(-c2ccc(Cl)cc2)[nH]c(C(F)(F)F)c1C(F)(F)F` [2-(P-chlorophenyl)-4,5-bis(trifluoromethyl)pyrrole-3-carbonitrile], which “Rating Against C. Elegans 150 ppm” value is on record?
Its value is 9.

With `O=[N+]([O-])c1c[nH]cc1-c1ccc(Cl)cc1` [3-(P-chlorophenyl)-4-nitro-pyrrole] as the molecule, how does the “Rating Against C. Elegans 150 ppm” value read?
Its value is 9.

For `N#Cc1[nH]c(-c2ccc(Cl)c(Cl)c2)c(Br)c1Br` [3,4-dibromo-5-(3,4-dichlorophenyl)pyrrole-2-carbonitrile], which “Rating Against C. Elegans 150 ppm” value is on record?
The value was 9.

`O=[N+]([O-])c1c(-c2ccc(Cl)c(Cl)c2)[nH]c(Cl)c1Cl` [2,3-Dichloro-5-(3,4-dichlorophenyl)-4-nitropyrrole] was tested. Which “Rating Against C. Elegans 150 ppm” value did it give?
Its value is 9.

How did the “Rating Against C. Elegans 150 ppm” value turn out when `CCOCn1c(-c2ccc(Cl)cc2Cl)c(C#N)c(Br)c1C(F)(F)F` [4-Bromo-2-(2,4-Dichlorophenyl)-1-(ethoxymethyl)-5-(trifluoromethyl)pyrrole-3-carbonitrile] was run?
Its value is 9.

For `CN(C)CCn1c(Cl)c(Cl)c(C#N)c1-c1ccc(Cl)c(Cl)c1` [4,5-Dichloro-2-(3,4-dichlorophenyl)-1-[2-(dimethylamino)ethyl]pyrrole-3-carbonitrile], which “Rating Against C. Elegans 150 ppm” value is on record?
The value was 9.

`N#Cc1c(-c2ccc(Cl)cc2)[nH]c(C(F)(F)F)c1Br` [4-Bromo-2-(p-chlorophenyl)-5-(trifluoromethyl)pyrrole-3-carbonitrile] was tested. Which “Rating Against C. Elegans 150 ppm” value did it give?
The value was 9.

`N#Cc1c(-c2ccc(C(F)(F)F)cc2)[nH]c(Cl)c1Cl` [4,5-Dichloro-2-(α,α,α-trifluoro-P-tolylpyrrole-3-carbonitrile] was tested. Which “Rating Against C. Elegans 150 ppm” value did it give?
Its value is 9.

`N#Cc1c(-c2ccc(Cl)cc2Cl)[nH]c(C(F)(F)F)c1Br` [4-Bromo-2-(2,4-dichlorophenyl)-5-(trifluoromethyl)pyrrole-3-carbonitrile] was tested. Which “Rating Against C. Elegans 150 ppm” value did it give?
Its value is 9.

For `N#Cc1cc([N+](=O)[O-])c(-c2ccc(Cl)c(Cl)c2)[nH]1` [5(3,4-Dichlorophenyl)-4-nitropyrrole-2-carbonitrile], which “Rating Against C. Elegans 150 ppm” value is on record?
Its value is 9.

With `N#Cc1c(-c2ccc([N+](=O)[O-])cc2)[nH]c(Br)c1Br` [4,5-Dibromo-2-(P-nitrophenyl)-pyrrole-3-carbonitrile] as the molecule, how does the “Rating Against C. Elegans 150 ppm” value read?
Its value is 9.

With `N#Cc1c(Br)c(Br)n(Cc2ccccc2)c1-c1ccc(C(F)(F)F)cc1` [1-Benzyl-4,5-dibromo-2-(α,α,α-trifluoro-p-tolyl)pyrrole-3-carbonitrile] as the molecule, how does the “Rating Against C. Elegans 150 ppm” value read?
The value was 9.

How did the “Rating Against C. Elegans 150 ppm” value turn out when `N#Cc1c(-c2ccc(Cl)c(Cl)c2)[nH]c([N+](=O)[O-])c1Br` [4-Bromo-2-(3,4-dichlorophenyl-5-nitropyrrole-3-carbonitrile] was run?
Its value is 9.

Which “Rating Against C. Elegans 150 ppm” value does the source give for `N#Cc1c[nH]c(C(F)(F)F)c1-c1ccccc1` [4-Phenyl-5-(trifluoromethyl)pyrrole-3-carbonitrile] here?
Its value is 9.

For `O=[N+]([O-])c1cc([N+](=O)[O-])c(-c2ccc(Br)cc2)[nH]1` [2-(P-bromophenyl)-3,5-dimitropyrrole], which “Rating Against C. Elegans 150 ppm” value is on record?
Its value is 9.

Which “Rating Against C. Elegans 150 ppm” value does the source give for `O=[N+]([O-])c1c(-c2ccc(C(F)(F)F)cc2)[nH]c(Cl)c1Cl` [2,3-Dichloro-4-nitro-5-(α,α,α-Trifluoro-p-tolylpyrrole] here?
Its value is 9.

With `CSCCn1c(Cl)c(Cl)c(C#N)c1-c1ccc(Cl)c(Cl)c1` [4,5-Dichloro-2-(3,4-dichlorophenyl)-1[2-(methylthio)ethyl]pyrrole-3-carbonitrile] as the molecule, how does the “Rating Against C. Elegans 150 ppm” value read?
The value was 9.

For `N#Cc1c(-c2cccc([N+](=O)[O-])c2)[nH]c(C(F)(F)F)c1Br` [4-Bromo-2-(m-nitrophenyl)-5-(trifluoromethyl)pyrrole-3-carbonitrile], which “Rating Against C. Elegans 150 ppm” value is on record?
The value was 9.

With `N#Cc1cc([N+](=O)[O-])[nH]c1-c1ccc(Cl)cc1` [2-(p-chlorophenyl)-5-nitropyrrole-3-carbonitrile] as the molecule, how does the “Rating Against C. Elegans 150 ppm” value read?
The value was 9.

For `N#Cc1[nH]c(-c2ccc(Cl)c(Cl)c2)c([N+](=O)[O-])c1Br` [3-Bromo-5-(3,4-dichlorophenyl)-4-nitropyrrole-2-carbonitrile], which “Rating Against C. Elegans 150 ppm” value is on record?
The value was 9.

With `N#Cc1c(Br)[nH]c(C(F)(F)F)c1-c1ccc(Cl)cc1` [2-Bromo-4-(P-chlorophenyl)-5-(trifluoromethyl)pyrrole-3-carbonitrile] as the molecule, how does the “Rating Against C. Elegans 150 ppm” value read?
The value was 9.

With “4,5-Dichloro-1-(hydromethyl)-2-(α,α,α-trifluoro-P-tolyl)” as the molecule, how does the “Rating Against C. Elegans 150 ppm” value read?
The value was 9.

Which “Rating Against C. Elegans 150 ppm” value does the source give for `N#Cc1cc(C#N)c(-c2ccc(Cl)c(Cl)c2)[nH]1` [5-(3,4-Dichlorophenyl)-pyrrole-3-dicarbonitrile] here?
The value was 9.

`O=[N+]([O-])c1c(-c2ccc(Br)cc2)[nH]c(Cl)c1Cl` [2-(P-bromophenyl)-4,5-dichloro-3-nitropyrrole] was tested. Which “Rating Against C. Elegans 150 ppm” value did it give?
Its value is 9.

Which “Rating Against C. Elegans 150 ppm” value does the source give for `N#Cc1ccc(-c2[nH]c(Br)c(Br)c2C#N)cc1` [4,5-Dibromo-2-(P-cyanophenyl)-pyrrole-3-carbonitrile] here?
Its value is 9.

For `COCCn1c(Cl)c(Cl)c(C#N)c1-c1ccc(C(F)(F)F)cc1` [4,5-Dichloro-1-(methoxyethyl)-2-(α,α,α-trifluoro-P-tolyl)pyrrole-3-carbonitrile], which “Rating Against C. Elegans 150 ppm” value is on record?
The value was 9.

Which “Rating Against C. Elegans 150 ppm” value does the source give for `N#Cc1c(-c2ccc(C(F)(F)F)cc2)[nH]c(Br)c1Br` [4,5-Dibromo-2-(α,α,α-trifluoro-p-tolyl)pyrrole-3-carbonitrile] here?
Its value is 9.

With `N#Cc1c(-c2ccc(Cl)c(Cl)c2)[nH]c(C(F)(F)F)c1Br` [4-Bromo-2-(3,4-dichlorophenyl)-5-(trifluoromethyl)pyrrole-3-carbonitrile] as the molecule, how does the “Rating Against C. Elegans 150 ppm” value read?
The value was 9.

Which “Rating Against C. Elegans 150 ppm” value does the source give for `CCOCn1c(-c2ccc(C(F)(F)F)cc2)c(C#N)c(Br)c1C(F)(F)F` [4-Bromo-1-(ethoxymethyl)-5-(trifluoromethyl)-2-(α,α,α-trifluoro-P-tolyl)-pyrrole-3-carbonitrile] here?
The value was 9.

With `N#Cc1c(-c2ccc(C(F)(F)F)cc2)[nH]c([N+](=O)[O-])c1Br` [4-Bromo-5-nitro-2-(α,α,α-trifluoro-P-tolyl)pyrrole-3-carbonitrile] as the molecule, how does the “Rating Against C. Elegans 150 ppm” value read?
Its value is 9.

Which “Rating Against C. Elegans 150 ppm” value does the source give for `N#Cc1[nH]ccc1-c1ccc(Cl)cc1` [3-(P-chlorophenyl)pyrrole-2-carbonitrile, 3-(p-chlorophenyl)-pyrrole-2-carbonitrile] here?
Its value is 9.

For `C=CCn1c(Cl)c(Cl)c(C#N)c1-c1ccc(Cl)c(Cl)c1` [1-Alkyl-4,5-dichloro-2-(3,4-dichlorophenyl)pyrrole-3-carbonitrile], which “Rating Against C. Elegans 150 ppm” value is on record?
The value was 9.

With `O=[N+]([O-])c1c[nH]cc1-c1ccccc1` [3-Nitro-4-phenylpyrrole] as the molecule, how does the “Rating Against C. Elegans 150 ppm” value read?
Its value is 9.

With `N#CCn1c(-c2ccc(Cl)cc2)c(C#N)c(Br)c1C(F)(F)F` [3-Bromo-5-(P-chlorophenyl)-4-cyano-2-(trifluoromethyl)-pyrrole-1-acetonitrile] as the molecule, how does the “Rating Against C. Elegans 150 ppm” value read?
Its value is 9.

Which “Rating Against C. Elegans 150 ppm” value does the source give for `COCn1c(-c2ccc(Cl)cc2)c(C#N)c(Br)c1C(F)(F)F` [4-Bromo-2-(P-chlorophenyl)-1-(1-methoxymethyl)-5-(trifluoromethyl)pyrrole-3-carbonitrile] here?
Its value is 9.

How did the “Rating Against C. Elegans 150 ppm” value turn out when `N#Cc1[nH]c(-c2ccc(OC(F)(F)F)cc2)c(C#N)c1Br` [3-Bromo-5-[P-(trifluoromethoxy)phenyl]-pyrrole-2-4-dicarbonitrile] was run?
The value was 9.

Which “Rating Against C. Elegans 150 ppm” value does the source give for `N#Cc1c[nH]c(-c2ccc(C(F)(F)F)cc2)c1` [5-(α,α,α-trifluoro-tolyl)-pyrrole-3-carbonitrile] here?
Its value is 9.
